Assay results published in ChEMBL document CHEMBL1201862, “PubChem BioAssay data set” (2004).
Activity calls are given as the source filed them.

Experiments:
[1] = Luminescence Cell-Based Dose Response to Identify Activators of 5'UTR Stem-Loop Driven Prion Protein mRNA Translation in H4-C Neuroglioblastoma Cells. [Related pubchem assays: 1829 (Project Summary), 1814 (Primary HTS)]; assay type: functional
[2] = Luminescence Cell-Based Dose Response HTS to Identify Activators of Luciferase Translation or Activity in H4 […] Cells. [Related pubchem assays: 1829 (Project Summary), 1814 (Primary HTS)]; assay type: functional
[3] = Luminescence Cell-Based Dose Response to Identify Activators of Luciferase Translation or Activity in H4-C Neuroglioblastoma Cells. [Related pubchem assays: 1829 (Project Summary), 1814 (Primary HTS)]; assay type: functional
[4] = Luminescence Cell-Based Dose Confirmation to Identify Activators of 5'UTR Stem-Loop Driven Alpha-Synuclein mRNA Translation in H4 Neuroglioblastoma Cells. [Related pubchem assays: 1829 (Project Summary), 1814 (Primary HTS)]; assay type: functional
cells [5] = assay type: functional
Galanin receptor type 3 = target: T1, Galanin receptor type 3 (Homo sapiens, UniProt O60755); assay: Fluorescence-based cell-based primary high throughput dose response assay to identify antagonists of the Galanin Receptor 3 (GalR3).; assay type: functional
T1 sequence (O60755 whole entry): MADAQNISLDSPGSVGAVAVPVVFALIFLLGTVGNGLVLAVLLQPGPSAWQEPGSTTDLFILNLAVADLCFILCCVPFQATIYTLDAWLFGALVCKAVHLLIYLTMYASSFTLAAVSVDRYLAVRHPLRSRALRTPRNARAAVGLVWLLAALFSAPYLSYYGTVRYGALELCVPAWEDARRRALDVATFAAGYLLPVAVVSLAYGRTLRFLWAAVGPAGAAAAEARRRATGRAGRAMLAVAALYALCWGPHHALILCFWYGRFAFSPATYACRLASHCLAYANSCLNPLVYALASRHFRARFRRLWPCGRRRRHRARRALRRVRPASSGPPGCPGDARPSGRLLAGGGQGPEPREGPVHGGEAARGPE

cells [6] = assay type: functional, cell-based; conditions: HEK-CNG
[7] = NIH-3T3 fibroblast cytotoxicity, dose response, cytotoxicity control, cell-based, fluorescence, Alamar Blue, secondary assay (AID 2327); assay type: functional;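 note: NIH-3T3 mouse fibroblasts cultured with fluconazole at 8 µg/mL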
[8] = C. albicans growth with fluconazole, confirmation, fluorescence, retest (AID 2467); assay type: functional, cell-based
[9] = inhibitors of intracellular T. cruzi replication, confirmation, NIH3T3 host cells, beta-gal luminescence (AID 2044); assay type: functional, cell-based;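 note: intracellular parasites grown in NIH/3T3 mouse fibroblasts as host cells; luminescent beta-galactosidase reporter signal from transgenic T. cruzi replicating inside host cells; inhibitors lower the luminescence signal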
[10] = cytotoxicity toward NIH3T3 fibroblasts, dose response, counter-screen, cell-based, ATP luminescence, mouse fibroblasts (AID 2010); assay type: functional;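 note: cells exposed to compound for about 90 hours before reading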
[11] = THP-1 cell cytotoxicity, dose response, cytotoxicity control for non-replicating M. tuberculosis project (AID 489025); assay type: functional
[12] = target: T2, Heat shock factor protein 1 (Mus musculus, UniProt P38532); assay: HSF1 potentiators in luciferase reporter cells, confirmation, cell-based, NIH3T3, luminescence, dose retest (AID 435004); assay type: functional;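 note: stress induced by proteasome inhibitor MG132 added 30 min after compound; luciferase reporter driven by HSF1 response element in NIH3T3 cells; actives raise luminescence as potentiators of the MG132 stress response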
T2 sequence (P38532 whole entry): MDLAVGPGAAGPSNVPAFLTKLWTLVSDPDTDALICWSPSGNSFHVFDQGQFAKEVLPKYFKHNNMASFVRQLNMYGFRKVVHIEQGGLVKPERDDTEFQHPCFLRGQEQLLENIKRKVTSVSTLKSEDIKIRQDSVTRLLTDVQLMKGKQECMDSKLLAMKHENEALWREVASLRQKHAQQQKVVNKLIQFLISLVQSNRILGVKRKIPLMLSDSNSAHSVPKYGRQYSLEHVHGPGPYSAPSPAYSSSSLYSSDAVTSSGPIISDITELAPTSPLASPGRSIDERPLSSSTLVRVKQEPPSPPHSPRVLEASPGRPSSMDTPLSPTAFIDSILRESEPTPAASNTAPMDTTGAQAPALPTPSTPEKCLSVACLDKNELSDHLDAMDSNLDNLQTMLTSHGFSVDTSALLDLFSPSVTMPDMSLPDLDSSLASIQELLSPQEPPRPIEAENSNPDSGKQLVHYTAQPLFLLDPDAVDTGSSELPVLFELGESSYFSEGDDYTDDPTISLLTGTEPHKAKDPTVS

[13] = target: T3, Replicative DNA helicase DnaB (Mycobacterium tuberculosis, UniProt P9WMR3); assay: DnaB intein splicing inhibitors, dose response, biochemical, cell-free fluorescence (AID 449749); assay type: functional
T3 sequence (P9WMR3 whole entry): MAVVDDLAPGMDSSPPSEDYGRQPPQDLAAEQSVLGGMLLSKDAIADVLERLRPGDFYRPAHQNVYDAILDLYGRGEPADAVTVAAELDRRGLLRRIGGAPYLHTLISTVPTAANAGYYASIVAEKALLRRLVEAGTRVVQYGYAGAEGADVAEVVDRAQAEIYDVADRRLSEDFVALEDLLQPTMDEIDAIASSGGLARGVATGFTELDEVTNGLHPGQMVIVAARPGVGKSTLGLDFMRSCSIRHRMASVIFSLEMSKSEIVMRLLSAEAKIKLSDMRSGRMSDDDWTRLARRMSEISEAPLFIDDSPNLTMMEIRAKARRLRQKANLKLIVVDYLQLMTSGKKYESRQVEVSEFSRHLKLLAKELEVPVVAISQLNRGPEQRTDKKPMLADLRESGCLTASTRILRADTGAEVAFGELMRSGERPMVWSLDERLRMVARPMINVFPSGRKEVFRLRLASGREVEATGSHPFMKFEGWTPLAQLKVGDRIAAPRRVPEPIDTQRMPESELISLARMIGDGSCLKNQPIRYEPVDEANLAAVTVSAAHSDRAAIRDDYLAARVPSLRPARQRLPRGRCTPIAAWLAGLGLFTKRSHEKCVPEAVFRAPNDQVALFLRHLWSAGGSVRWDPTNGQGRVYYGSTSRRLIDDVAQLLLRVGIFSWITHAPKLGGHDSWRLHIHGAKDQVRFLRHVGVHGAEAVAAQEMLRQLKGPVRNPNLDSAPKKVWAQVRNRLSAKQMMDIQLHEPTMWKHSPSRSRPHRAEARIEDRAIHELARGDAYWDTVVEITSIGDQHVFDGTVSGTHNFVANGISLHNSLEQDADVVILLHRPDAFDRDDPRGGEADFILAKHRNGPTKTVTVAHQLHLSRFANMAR

Protein RecA = target: T4, Protein RecA (Mycobacterium tuberculosis, UniProt P9WHJ3); assay: Fluorescence Cell-Free Homogeneous Dose Retest to Identify Inhibitors of RecA-Intein Splicing Activity. [Related pubchem assays (depositor defined):AID2097, AID2223, AID489010, AID492950]; assay type: functional
T4 sequence (P9WHJ3 whole entry): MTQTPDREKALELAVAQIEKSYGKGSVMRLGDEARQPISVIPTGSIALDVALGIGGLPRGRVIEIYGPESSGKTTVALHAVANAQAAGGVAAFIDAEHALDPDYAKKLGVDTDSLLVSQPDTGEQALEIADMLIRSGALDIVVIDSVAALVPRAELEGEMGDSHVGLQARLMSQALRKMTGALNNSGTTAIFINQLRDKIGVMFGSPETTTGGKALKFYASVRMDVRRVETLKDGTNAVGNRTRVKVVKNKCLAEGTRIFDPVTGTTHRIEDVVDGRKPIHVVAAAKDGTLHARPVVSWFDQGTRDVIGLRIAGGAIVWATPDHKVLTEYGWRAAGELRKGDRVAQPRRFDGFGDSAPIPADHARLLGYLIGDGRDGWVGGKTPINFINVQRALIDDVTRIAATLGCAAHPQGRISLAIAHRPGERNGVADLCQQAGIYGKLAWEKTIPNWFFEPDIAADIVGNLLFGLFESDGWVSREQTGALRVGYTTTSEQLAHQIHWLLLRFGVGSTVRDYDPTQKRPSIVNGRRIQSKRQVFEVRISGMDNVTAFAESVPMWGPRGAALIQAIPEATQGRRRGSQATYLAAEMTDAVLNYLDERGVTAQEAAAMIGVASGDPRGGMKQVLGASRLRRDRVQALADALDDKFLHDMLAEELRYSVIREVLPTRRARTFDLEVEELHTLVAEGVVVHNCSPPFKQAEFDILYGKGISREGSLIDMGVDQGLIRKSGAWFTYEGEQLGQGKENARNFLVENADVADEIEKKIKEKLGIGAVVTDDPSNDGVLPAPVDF

[14] = HepG2 cell cytotoxicity, dose response, cytotoxicity control, plate reader, cherry-pick, antagonist series (AID 743416); assay type: functional, cell-based
[15] = HEK293 cell cytotoxicity, dose response, cytotoxicity control, plate reader, cherry-picked samples (AID 743446); assay type: functional, cell-based
[16] = A549 cell cytotoxicity, dose response, cytotoxicity control, plate reader, cherry-pick, antagonist series (AID 743412); assay type: functional, cell-based
[17] = LGR2 antagonists, dose response, cell-based, HEK293, CRE-luciferase reporter, cherry pick, set 2 (AID 743343); assay type: functional;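 note: transfected cells were stimulated with diluted bursicon conditioned medium after compound addition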
[18] = MC4R antagonists, dose response, counter-screen for LGR2 antagonist project, cell-based, plate reader, cherry pick (AID 743444); assay type: functional;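 note: transfected HEK 293 cells stimulated with alpha-MSH peptide; potency of inhibitors of the alpha-MSH evoked signal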
[19] = inhibitors of PGC1a acetylation in cells, dose response, cell-based, cherry-picked samples (AID 720514); assay type: functional;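 note: potency may reflect raised or lowered acetylation signal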
[20] = Luminescence-based cell-based high throughput dose response assay to identify activators of the DAF-12 from the parasite S. stercoralis (ssDAF-12).; assay type: functional
[21] = target: T5, Oxysterols receptor LXR-beta (Homo sapiens, UniProt P55055); assay type: functional, cell-based;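 note: Cell-based luminescence dose-response assay of agonist activity at LXR, run as a confirmatory counterscreen to a daf-12 agonist screen; HEK293 cells with Gal4-LXR fusion and GAL4-driven luciferase reporter; agonist potency from rising luciferase signal of a Gal4-LXR reporter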
T5 sequence (P55055 whole entry): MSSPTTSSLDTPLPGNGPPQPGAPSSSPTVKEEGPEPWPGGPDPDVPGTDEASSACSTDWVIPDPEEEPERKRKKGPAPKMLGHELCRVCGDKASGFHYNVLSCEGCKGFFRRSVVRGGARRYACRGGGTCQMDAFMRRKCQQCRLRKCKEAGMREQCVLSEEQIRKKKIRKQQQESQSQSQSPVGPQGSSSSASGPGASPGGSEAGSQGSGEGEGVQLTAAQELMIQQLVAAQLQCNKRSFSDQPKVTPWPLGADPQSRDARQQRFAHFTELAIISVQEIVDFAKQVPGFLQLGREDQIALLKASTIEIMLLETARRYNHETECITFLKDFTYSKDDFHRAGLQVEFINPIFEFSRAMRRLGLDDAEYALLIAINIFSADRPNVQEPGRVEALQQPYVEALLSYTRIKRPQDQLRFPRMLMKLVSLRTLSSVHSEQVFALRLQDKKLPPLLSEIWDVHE

cells [22] = assay: cells

In the case of `COCCn1c(C)cc(C(=O)CSc2nc(O)c3ccccc3n2)c1C`, the EC50 [1] is reported as 0.269 µM (active), the EC50 [2] is reported as < 0.1 µM (active) and the EC50 [3] is reported as 0.326 µM (active). The EC50 [4] was 0.371 µM (active).
In the case of `O=C(COc1ccc2ccccc2c1)Nc1ccncc1`, the IC50 (cells [5]) is reported as 6.95 µM (active), the IC50 (Galanin receptor type 3) is reported as 1.77 µM (active) and the EC50 (cells [6]) is reported as > 29.9 µM (inactive).
For `Cc1noc2ncnc(Sc3ccc(Br)cc3)c12`, the EC50 [7] was 7.6 µM (inconclusive), the EC50 [8] was > 38 µM (not active) and the EC50 [9] was 1.96 µM (active). For the same molecule, the EC50 [10] was > 60 µM (inconclusive), the CC50 [11] was > 40 µM (active) and the EC50 [12] was 6.64 µM (active). For the same molecule, the IC50 (cells [5]) was 11.6 µM (active), the AC50 [13] was 4.02 µM (active) and the EC50 (Protein RecA) was 16.2 µM (active). The AC50 [14] was 25.4 µM (active) and the AC50 [15] was > 52 µM (inactive).
With `COc1ccc(-c2cc3nc(NCc4ccc(N(C)C)cc4)n(C)c(=O)c3s2)cc1OC` the AC50 [16] was 36 µM (active), the AC50 [14] was 45.2 µM (active) and the AC50 [17] was 31.3 µM (active). The AC50 [18] was 39 µM (active) and the AC50 [15] was 3.28 µM (active).
With `C[C@@H]1CN([C@@H](C)CO)S(=O)(=O)c2ccc(-c3ccc(C#N)cc3)cc2O[C@H]1CN(C)C(=O)CN(C)C` the AC50 [19] was 26.5 µM (active).
In the case of `O=C1C2C3CCC(C3)C2C(=O)N1c1ccc(OS(=O)(=O)c2ccccc2)cc1` (configuration not stated), the EC50 [1] is reported as 0.408 µM (active), the EC50 [2] is reported as < 0.1 µM (inconclusive) and the EC50 [3] is reported as 0.36 µM (active). The EC50 [4] was 0.366 µM (active).
With `O=C(Cc1ccccn1)NCC[C@H]1CC[C@@H](NC(=O)Nc2ccc(C(F)(F)F)cc2)[C@@H](CO)O1` the AC50 [19] was 34.6 µM (active).
For `Nc1ccccc1-n1nc2ccc3ccccc3c2n1`, the IC50 [20] was > 67.5 µM (inactive), the EC50 [21] was > 67.5 µM (inactive) and the EC50 (cells [22]) was > 67.5 µM (inactive).
